Measurements published in patent publication US8143394B2, “Pyrido(3,2-d)pyrimidines useful for treating viral infections” (Gilead Sciences, Inc., priority 2006, dated 2012).
Read-outs that look alike come from different tables or passages of the source.

Tests used:
[1] = biological target: HCV replicon; assay: Anti-HCV replicon assay (EC50, luciferase readout); type: cell-based; settings: human hepatoma Huh-7 cell line harbouring a HCV replicon, 3 days, luciferase, read-out: EC50
Procedure, shortened: (§1)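 Huh-7 cells bearing HCV replicon, 6000 per well, exposed 3 days at 37 °C to 3-fold compound dilutions (0.5% DMSO final where used). EC50 from luciferase luminescence after lysis; CC50 (50% growth inhibition) from CellTiter-Glo luminescence in parallel plates.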

[2] = system: Huh-7 HCV replicon cells; assay: CC50 assay (CellTiter-Glo) in Huh-7 HCV replicon cells; type: cell-based, human; settings: 3 days, 50% cytostatic concentration
Procedure, shortened: as §1

[3] = as above; type: cell-based, human; settings: human, 50% cytostatic concentration
Procedure, shortened: as §1

Molecule	EC50 [1] [µM]	CC50 [2] [µM]	EC50 ([1]; Hepatitis C virus, 72 h) [µM]	CC50 at 3 days [3] [µM]
4-ethoxy-6-(5-methyl-4H-[1,2,4]triazol-3-yl)-pyrido[3,2-d]pyrimidin-2-ylamine [Example 88]	0.3 to 1	10 to 20		
Nc1nc(O[C@H]2CCOC2)c2nc(-c3ccc(C(=O)NCCN4CCCC4)cc3)ccc2n1 [Example 83, 4-[2-Amino-4-(tetrahydro-furan-3-yloxy)-pyrido[3,2-d]pyrimidin-6-yl]-N-(2-pyrrolidin-1-yl-ethyl)-benzamide]			< 0.3	> 20
Nc1nc(O[C@H]2CCOC2)c2nc(-c3ccc(C(=O)NCCN4CCOCC4)cc3)ccc2n1 [Example 84, 4-[2-Amino-4-(tetrahydro-furan-3-yloxy)-pyrido[3,2-d]pyrimidin-6-yl]-N-(2-morpholin-4-yl-ethyl)-benzamide]			< 0.3	> 20
CCOc1nc(N)nc2ccc(-c3ccc(-c4nnc(C)o4)cc3)nc12 [Example 85, 4-Ethoxy-6-[4-(5-methyl-[1,3,4]oxadiazol-2-yl)-phenyl]-pyrido[3,2-d]pyrimidin-2-ylamine]			> 1	> 20
CCOc1nc(N)nc2ccc(-c3ccc(C(=O)Nc4ccc(F)cc4)cc3)nc12 [Example 86, 4-(2-Amino-4-ethoxy-pyrido[3,2-d]pyrimidin-6-yl)-N-(4-fluoro-phenyl)-benzamide]			0.3 to 1	> 20
CCOc1nc(N)nc2ccc(-c3ccc(C(=O)Nc4ccccc4)cc3)nc12 [Example 87, 4-(2-Amino-4-ethoxy-pyrido[3,2-d]pyrimidin-6-yl)-N-phenyl-benzamide]			> 1	> 20
CCOc1nc(N)nc2ccc(-c3ccc(C(=O)NC4CC4)s3)nc12 [Example 89, 2-amino-4-ethoxy-6-(2-(N-(cyclopropyl)carbamoyl)-5-thiophenyl)pyrido[3,2-d]pyrimidine]			< 0.3	> 20
